# Results published in PMC10052977, “α,ω-Diacyl-Substituted Analogues of Natural and Unnatural Polyamines: Identification of Potent Bactericides That Selectively Target Bacterial Membranes” (International Journal of Molecular Sciences, 2023).
# Assays:
# [1] = tested on: Staphylococcus aureus ATCC 25923 or ATCC 29213; assay: MIC, broth dilution (CA-SFM); assay type: cell-based; conditions: Staphylococcus aureus ATCC 25923 or ATCC 29213; mean (n = 3); read-out: MIC S. a
# MRSA ATCC 43300 = assay: MIC, CO-ADD broth microdilution; assay type: cell-based, Staphylococcus aureus; conditions: Staphylococcus aureus; MRSA ATCC 43300; mean (n = 2); read-out: MIC MRSA
# [2] = tested on: Escherichia coli ATCC 25922; assay: MIC, CO-ADD broth microdilution; assay type: cell-based; conditions: ATCC25922, mean (n = 2)
# [3] = tested on: Pseudomonas aeruginosa PAO1 or ATCC 27853; assay: MIC, broth dilution (CA-SFM); assay type: cell-based; conditions: mean (n = 3)
# [4] = tested on: Klebsiella pneumoniae ATCC700603; assay: MIC, CO-ADD broth microdilution; assay type: cell-based; conditions: mean (n = 2)
# [5] = tested on: Acinetobacter baumannii ATCC19606; assay: MIC, CO-ADD broth microdilution; assay type: cell-based; conditions: mean (n = 2)
# [6] = tested on: Candida albicans ATCC90028; assay: Antifungal MIC, CO-ADD; assay type: cell-based; conditions: mean (n = 2)
# Method: (§1) For the antifungal assay, fungi strains were cultured for 3 days on YPD agar at 30 °C. A yeast suspension of 1 × 10^6 to 5 × 10^6 CFU/mL was prepared from five colonies. These stock suspensions were diluted with yeast nitrogen base (YNB) (Becton Dickinson, 233520) broth to a final concentration of 2.5 × 10^3 CFU/mL. […] Plates were covered and incubated at 35 °C for 36 h without shaking. C. albicans MICs were determined by measuring the absorbance at OD530. […] Fluconazole was used as a positive fungal inhibitor standard for C. albicans and C. neoformans. […] Quality control (QC) of the assays was determined by antimicrobial controls and Z’-factor (using positive and negative controls).
# [7] = tested on: Cryptococcus neoformans ATCC208821; assay: Antifungal MIC, CO-ADD; assay type: cell-based
# Method: as §1
# [8] = Cytotoxicity assay (resazurin); assay type: cell-based, human; conditions: human; HEK293 cells; mean (n = 2); highest dose tested 32 μg/mL; read-out: Cytotoxicity (concentration of compound at 50% cytotoxicity, IC50)
# human red blood cells = assay: Hemolytic assay; assay type: cell-based; conditions: mean (n = 2)
# Method: Human whole blood was washed three times with 3 volumes of 0.9% NaCl and then resuspended in same to a concentration of 0.5 × 10^8 cells/mL, as determined by manual cell count in a Neubauer hemocytometer. The washed cells were then added to the 384-well compound-containing plates for a final volume of 50 μL. After a 10 min shake on a plate shaker, the plates were then incubated for 1 h at 37 °C. After incubation, the plates were centrifuged at 1000× g for 10 min to pellet cells and debris; 25 μL of the supernatant was then transferred to a polystyrene 384-well assay plate. Hemolysis was determined by measuring the supernatant absorbance at […] (OD405). The absorbance was measured using a Tecan M1000 Pro monochromator plate reader. HC10 and HC50 (concentration at 10% and 50% hemolysis, respectively) were calculated by curve fitting the inhibition values vs. log (concentration) using a sigmoidal dose–response function with variable fitting values for top, bottom and slope.
# [9] = ATCC208821, Cryptococcus neoformans ATCC208821, mean (n = 2)
SMILES,MIC [1] [µM],MIC (MRSA ATCC 43300) [µM],MIC [2] [µM],MIC [3] [µM],MIC [4] [µM],MIC ([5]; 18 h) [µM],MIC [6] [µM],"MIC [7, 9] [µM]",melting point [°C],MIC [5] [µM],MIC ([6]; 36 h) [µM],"MIC ([7]; ATCC208821, 36 h, Cryptococcus neoformans ATCC208821, mean (n = 2)) [µM]",IC50 at 20 h [8] [µM],"Hemolysis (HC10, concentration at 10% hemolytic activity) (human red blood cells) [µM]"
"Cl.Cl.S=C(NCCCNCCCCNCCCNC(=S)NC(c1ccccc1)c1ccccc1)NC(c1ccccc1)c1ccccc1 [Compound 6a, N^1,N^4-Bis(3-(3-benzhydrylthioureido)propyl)butane-1,4-diaminium chloride]",> 276,≤ 0.34,2.8,138,> 44.1,≤ 0.35,≤ 0.34,11,168 to 169,–,–,–,> 44.1,7.73
"Cl.Cl.S=C(NCCCNCCCCCCCNCCCNC(=S)NC(c1ccccc1)c1ccccc1)NC(c1ccccc1)c1ccccc1 [Compound 6c, N^1,N^7-Bis(3-(3-benzhydrylthioureido)propyl)heptane-1,7-diaminium chloride]",65,≤ 0.33,≤ 0.33,> 260,> 41.7,–,≤ 0.33,0.65,115 to 116,2.6,–,–,> 41.7,≤0.326
"Cl.Cl.S=C(NCCCNCCCCCCCCNCCCNC(=S)NC(c1ccccc1)c1ccccc1)NC(c1ccccc1)c1ccccc1 [Compound 6d, N^1,N^8-Bis(3-(3-benzhydrylthioureido)propyl)octane-1,8-diaminium chloride]",6.25,≤ 0.32,≤ 0.32,100,40.9,–,≤ 0.32,20.5,113 to 115,5.1,–,–,10.1,2.07
"Cl.Cl.S=C(NCCCNCCCCCCCCCCCCNCCCNC(=S)NC(c1ccccc1)c1ccccc1)NC(c1ccccc1)c1ccccc1 [Compound 6f, N^1,N^12-Bis(3-(3-benzhydrylthioureido)propyl)dodecane-1,12-diaminium chloride]",> 239,≤ 0.3,2.4,120,> 38.2,–,≤ 0.3,> 38.2,103 to 104,> 38.2,–,–,≤ 0.298,>38.2
"O=C(O)CCC(=O)NCCCc1ccccc1 [Compound 8, 4-oxo-4-((3-phenylpropyl)amino)butanoic acid]",–,–,–,–,–,–,–,–,94 to 95,–,–,–,–,–
"O=C(O)CCC(=O)NCCC(c1ccccc1)c1ccccc1 [Compound 10, 4-((3,3-diphenylpropyl)amino)-4-oxobutanoic acid]",–,–,–,–,–,–,–,–,134 to 137,–,–,–,–,–

# Second part, led by results:
MIC [1] [µM],MIC (MRSA ATCC 43300) [µM],MIC [2] [µM],MIC [3] [µM],MIC [4] [µM],MIC ([5]; 18 h) [µM],MIC [6] [µM],"MIC [7, 9] [µM]",melting point [°C],MIC [5] [µM],MIC ([6]; 36 h) [µM],"MIC ([7]; ATCC208821, 36 h, Cryptococcus neoformans ATCC208821, mean (n = 2)) [µM]",SMILES,IC50 at 20 h [8] [µM],"Hemolysis (HC10, concentration at 10% hemolytic activity) (human red blood cells) [µM]"
3.12,< 0.23,< 0.23,300,> 30.3,–,> 30.3,< 0.23,–,> 30.3,–,–,"O=C(NCCCNCCCCCCCCCCNCCCNC(=O)C(c1ccccc1)(c1ccccc1)c1ccccc1)C(c1ccccc1)(c1ccccc1)c1ccccc1.O=C(O)C(F)(F)F.O=C(O)C(F)(F)F [Compound 17e, N^1,N^10-Bis(3-(2,2,2-triphenylacetamido)propyl)decane-1,10-diaminium 2,2,2-trifluoroacetate]",> 30.3,≤0.234
6.25,< 0.23,> 29.5,300,> 29.5,–,< 0.23,< 0.23,–,> 29.5,–,–,"O=C(NCCCNCCCCCCCCCCCCNCCCNC(=O)C(c1ccccc1)(c1ccccc1)c1ccccc1)C(c1ccccc1)(c1ccccc1)c1ccccc1.O=C(O)C(F)(F)F.O=C(O)C(F)(F)F [Compound 17f, N^1,N^12-Bis(3-(2,2,2-triphenylacetamido)propyl)dodecane-1,12-diaminium 2,2,2-trifluoroacetate]",≤ 0.231,≤0.231
3.12,< 0.25,0.5,25,32,–,8,32,–,4,–,–,"O=C(CC(c1ccccc1)(c1ccccc1)c1ccccc1)NCCCNCCCCNCCCNC(=O)CC(c1ccccc1)(c1ccccc1)c1ccccc1.O=C(O)C(F)(F)F.O=C(O)C(F)(F)F [Compound 18a, N^1,N^4-Bis(3-(3,3,3-triphenylpropanamido)propyl)butane-1,4-diaminium 2,2,2-trifluoroacetate]",18.3,1.58
1.56,< 0.24,0.97,50,31.2,–,7.79,31.2,–,7.8,–,–,"O=C(CC(c1ccccc1)(c1ccccc1)c1ccccc1)NCCCNCCCCCCNCCCNC(=O)CC(c1ccccc1)(c1ccccc1)c1ccccc1.O=C(O)C(F)(F)F.O=C(O)C(F)(F)F [Compound 18b, N^1,N^6-Bis(3-(3,3,3-triphenylpropanamido)propyl)hexane-1,6-diaminium 2,2,2-trifluoroacetate]",15.7,0.985
1.56,< 0.24,3.84,100,30.7,–,3.84,30.7,–,1.92,–,–,"O=C(CC(c1ccccc1)(c1ccccc1)c1ccccc1)NCCCNCCCCCCCNCCCNC(=O)CC(c1ccccc1)(c1ccccc1)c1ccccc1.O=C(O)C(F)(F)F.O=C(O)C(F)(F)F [Compound 18c, N^1,N^7-Bis(3-(3,3,3-triphenylpropanamido)propyl)heptane-1,7-diaminium 2,2,2-trifluoroacetate]",13.2,3.12
3.12,< 0.24,7.58,200,> 30.3,–,< 0.24,7.6,–,7.6,–,–,"O=C(CC(c1ccccc1)(c1ccccc1)c1ccccc1)NCCCNCCCCCCCCNCCCNC(=O)CC(c1ccccc1)(c1ccccc1)c1ccccc1.O=C(O)C(F)(F)F.O=C(O)C(F)(F)F [Compound 18d, N^1,N^8-Bis(3-(3,3,3-triphenylpropanamido)propyl)octane-1,8-diaminium 2,2,2-trifluoroacetate]",9.7,3.17
1.56,< 0.23,> 29.5,200,> 29.5,–,< 0.23,< 0.23,–,< 0.23,–,–,"O=C(CC(c1ccccc1)(c1ccccc1)c1ccccc1)NCCCNCCCCCCCCCCNCCCNC(=O)CC(c1ccccc1)(c1ccccc1)c1ccccc1.O=C(O)C(F)(F)F.O=C(O)C(F)(F)F [Compound 18e, N^1,N^10-Bis(3-(3,3,3-triphenylpropanamido)propyl)decane-1,10-diaminium 2,2,2-trifluoroacetate]",7.23,≤0.231
25,< 0.22,> 28.8,300,> 28.8,–,–,–,–,> 28.8,< 0.23,< 0.23,"O=C(CC(c1ccccc1)(c1ccccc1)c1ccccc1)NCCCNCCCCCCCCCCCCNCCCNC(=O)CC(c1ccccc1)(c1ccccc1)c1ccccc1.O=C(O)C(F)(F)F.O=C(O)C(F)(F)F [Compound 18f, N^1,N^12-Bis(3-(3,3,3-triphenylpropanamido)propyl)dodecane-1,12-diaminium 2,2,2-trifluoroacetate]",0.409,≤0.225
